Data published in publication PMC4764943, “Inhibitory effect of traditional oriental medicine-derived monoamine oxidase B inhibitor on radioresistance of non-small cell lung cancer” (Scientific Reports, 2016).

Tests used:
[1] = target: T1, MAOB (monoamine oxidase B) (Homo sapiens, UniProt P27338); experiment: ITC ([…] stoichiometry); also MAOB activity inhibition in vitro, IC50 […]; type: binding
T1 construct: recombinant human MAOB
T1 sequence (P27338 2-520): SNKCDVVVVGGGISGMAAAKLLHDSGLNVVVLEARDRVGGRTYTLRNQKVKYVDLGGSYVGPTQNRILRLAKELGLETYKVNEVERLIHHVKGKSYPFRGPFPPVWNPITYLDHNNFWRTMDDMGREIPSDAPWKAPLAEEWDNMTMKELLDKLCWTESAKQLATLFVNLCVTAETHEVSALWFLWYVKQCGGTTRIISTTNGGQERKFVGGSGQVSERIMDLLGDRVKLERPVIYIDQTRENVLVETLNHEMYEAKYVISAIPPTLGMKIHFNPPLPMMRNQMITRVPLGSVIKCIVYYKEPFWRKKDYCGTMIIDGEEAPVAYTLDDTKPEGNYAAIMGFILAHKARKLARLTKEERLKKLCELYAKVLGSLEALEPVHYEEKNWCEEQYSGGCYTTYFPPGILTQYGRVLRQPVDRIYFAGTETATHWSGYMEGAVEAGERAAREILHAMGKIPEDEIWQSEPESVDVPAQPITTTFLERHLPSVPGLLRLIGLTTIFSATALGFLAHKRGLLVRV

[2] = target: T1, MAOB (monoamine oxidase B); experiment: ITC; type: binding

O=C(O)[C@H](O)Cc1ccc(O)c(O)c1 [danshensu, 3-(3,4-dihydroxyphenyl)-2-hydroxy-propanoic acid]
Kd [1]: 16 ± 0.8 µM

CNCC(O)c1ccc(O)cc1 (stereo not drawn) [synephrine]
Kd ([2]; read-out: Kd): 183 ± 10.3 µM

COc1cc(C=O)ccc1O [vanillin]
Kd [2]: 165 ± 9.1 µM
